# According to patent publication US10221177B2 (HYDRA BIOSCIENCES, INC., priority 2014, dated 2019):
# Target: human TRPA1 (Homo sapiens (Human), UniProt O75762)
# Assay: In vitro inhibition of human TRPA1, whole cell patch configuration
# Type: cell-based
# Details: current activation 10 μM AITC, tested concentrations 320 pM to 3.2 μM, read-out: hTRPA1 IC50
# Procedure, shortened: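 Whole-cell patch clamp, bath 150 mM NaCl, 10 mM HEPES, 1 mM EGTA, 3 mM MgCl2, pH 7.4 (sometimes 2 mM CaCl2, 1 mM MgCl2). Currents recorded continuously at −60 mV or by 400 ms ramps from −40 mV holding every 4 s; inward/outward currents taken at −80/80 mV, with controlled-temperature focal perfusion.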
# Sequence of human TRPA1 (O75762 whole entry): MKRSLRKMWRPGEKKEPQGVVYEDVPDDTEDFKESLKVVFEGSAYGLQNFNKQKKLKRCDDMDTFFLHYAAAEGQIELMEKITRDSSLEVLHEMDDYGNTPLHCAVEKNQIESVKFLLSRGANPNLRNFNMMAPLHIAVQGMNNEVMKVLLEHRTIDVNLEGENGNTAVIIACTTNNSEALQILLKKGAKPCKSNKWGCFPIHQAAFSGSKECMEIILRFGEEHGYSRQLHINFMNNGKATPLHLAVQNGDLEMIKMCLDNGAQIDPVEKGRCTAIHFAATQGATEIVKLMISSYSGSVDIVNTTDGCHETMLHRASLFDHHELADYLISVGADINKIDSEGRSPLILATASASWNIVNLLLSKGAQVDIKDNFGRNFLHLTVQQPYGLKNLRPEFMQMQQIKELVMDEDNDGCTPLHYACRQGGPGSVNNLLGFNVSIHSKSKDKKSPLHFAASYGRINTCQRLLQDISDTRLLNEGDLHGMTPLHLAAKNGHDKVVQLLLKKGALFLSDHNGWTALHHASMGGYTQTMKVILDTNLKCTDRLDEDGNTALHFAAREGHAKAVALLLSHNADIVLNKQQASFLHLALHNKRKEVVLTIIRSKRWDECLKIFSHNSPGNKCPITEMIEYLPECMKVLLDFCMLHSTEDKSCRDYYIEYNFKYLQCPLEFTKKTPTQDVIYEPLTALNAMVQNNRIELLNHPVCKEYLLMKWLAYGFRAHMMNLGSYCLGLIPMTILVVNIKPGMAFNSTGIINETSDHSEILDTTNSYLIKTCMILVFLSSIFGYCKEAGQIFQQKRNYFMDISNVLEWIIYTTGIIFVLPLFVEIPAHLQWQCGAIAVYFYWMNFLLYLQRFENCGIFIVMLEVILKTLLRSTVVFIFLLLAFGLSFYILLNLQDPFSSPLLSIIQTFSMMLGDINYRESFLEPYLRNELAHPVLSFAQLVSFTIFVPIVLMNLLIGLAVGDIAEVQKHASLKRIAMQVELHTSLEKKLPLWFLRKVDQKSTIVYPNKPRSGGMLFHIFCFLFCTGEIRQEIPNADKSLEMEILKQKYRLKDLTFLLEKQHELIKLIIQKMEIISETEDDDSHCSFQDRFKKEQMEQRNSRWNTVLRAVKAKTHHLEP
row,Structure (SMILES),IC50 [nM]
1,"C[C@@H](C(=O)Nc1cccc(-c2cnc(N3CC4CC4C3)nc2)n1)n1cnc2c1c(=O)n(CC#N)c(=O)n2C (stereo partly drawn) [Compound 11, (2S)—N-(6-(2-(3-azabicyclo[3.1.0]hexan-3-yl)pyrimidin-5-yl)pyridin-2-yl)-2-(1-(cyanomethyl)-3-methyl-2,6-dioxo-2,3-dihydro-1H-purin-7(6H)-yl)propanamide]",5
2,"CCC(=O)Cn1c(=O)c2c(ncn2[C@@H](C)C(=O)Nc2cccc(-c3ccc(C(F)(F)F)nc3)n2)n(C)c1=O [Compound 116, (S)-2-(3-methyl-2,6-dioxo-1-(2-oxobutyl)-2,3-dihydro-1H-purin-7(6H)-yl)-N-(6′-(trifluoromethyl)-[2,3′-bipyridin]-6-yl)propanamide]",> 3200
3,"CCC(=O)Cn1c(=O)c2c(ncn2[C@@H](C)C(=O)Nc2cccc(-c3cnc(N4CC5C(C4)C5(F)F)cn3)n2)n(C)c1=O (stereo partly drawn) [Compound 256, (2S)—N-(6-(5-(6,6-difluoro-3-azabicyclo[3.1.0]hexan-3-yl)pyrazin-2-yl)pyridin-2-yl)-2-(3-methyl-2,6-dioxo-1-(2-oxobutyl)-2,3-dihydro-1H-purin-7(6H)-yl)propanamide]",5
4,"CC(=O)Cn1c(=O)c2c(ncn2[C@@H](C)C(=O)Nc2cccc(-c3ccc(N4CC5CC5C4)nc3)n2)n(C)c1=O (stereo partly drawn) [Compound 44, (2S)—N-(6′-(3-azabicyclo[3.1.0]hexan-3-yl)-2,3′-bipyridin-6-yl)-2-(3-methyl-2,6-dioxo-1-(2-oxopropyl)-2,3-dihydro-1H-purin-7(6H)-yl)propanamide]",14
5,Cc1cc(Cn2c(=O)c3c(ncn3[C@@H](C)C(=O)Nc3cccc(-c4ccc(C(F)(F)F)cc4)n3)n(C)c2=O)no1 [Compound 23],5
6,"C[C@@H](C(=O)Nc1cccc(-c2cnc(N3CCC[C@@H]3C(F)(F)F)nc2)n1)n1cnc2c1c(=O)n(CC#N)c(=O)n2C [Compound 39, (S)-2-(1-(cyanomethyl)-3-methyl-2,6-dioxo-2,3-dihydro-1H-purin-7(6H)-yl)-N-(6-(2-((R)-2-(trifluoromethyl)pyrrolidin-1-yl)pyrimidin-5-yl)pyridin-2-yl)propanamide]",3
7,"CC(=O)Cn1c(=O)c2c(ncn2CC(=O)Nc2cncc(-c3cnc(C)c(C(F)(F)F)c3)n2)n(C)c1=O [Compound 245, 2-(3-methyl-2,6-dioxo-1-(2-oxopropyl)-2,3-dihydro-1H-purin-7(6H)-yl)-N-(6-(6-methyl-5-(trifluoromethyl)pyridin-3-yl)pyrazin-2-yl)acetamide]",8
8,"Cc1cc(Cn2c(=O)c3c(ncn3[C@@H](C)C(=O)Nc3cncc(-c4ccc(C(F)(F)F)nc4)n3)n(C)c2=O)no1 [Compound 118, (S)-2-(3-methyl-1-((5-methylisoxazol-3-yl)methyl)-2,6-dioxo-2,3-dihydro-1H-purin-7(6H)-yl)-N-(6-(6-(trifluoromethyl)pyridin-3-yl)pyrazin-2-yl)propanamide]",17
9,"CC#CCn1c(=O)c2c(ncn2[C@@H](C)C(=O)Nc2ccnc(-c3cnc(N4CC5CC5C4)nc3)n2)n(C)c1=O (stereo partly drawn) [Compound 173, (2S)—N-(2′-(3-azabicyclo[3.1.0]hexan-3-yl)-[2,5′-bipyrimidin]-4-yl)-2-(1-(but-2-yn-1-yl)-3-methyl-2,6-dioxo-2,3-dihydro-1H-purin-7(6H)-yl)propanamide]",6
10,"CCOc1ncc(-c2cccc(NC(=O)[C@H](C)n3cnc4c3c(=O)n(Cc3cc(C)on3)c(=O)n4C)n2)cc1C(F)(F)F [Compound 122, (S)—N-(6′-ethoxy-5′-(trifluoromethyl)-[2,3′-bipyridin]-6-yl)-2-(3-methyl-1-((5-methylisoxazol-3-yl)methyl)-2,6-dioxo-2,3-dihydro-1H-purin-7(6H)-yl)propanamide]",1
11,CC(=O)Cn1c(=O)c2c(nc(C)n2CC(=O)Nc2cccc(-c3cnc(N4CCC[C@H]4C(F)(F)F)nc3)n2)n(C)c1=O [Compound 195],3
12,"CC(=O)Cn1c(=O)c2c(ncn2[C@@H](C)C(=O)Nc2ccnc(-c3ccc(N4CC5C(C4)C5(F)F)nc3)n2)n(C)c1=O (stereo partly drawn) [Compound 69, (2S)—N-(2-(6-(6,6-difluoro-3-azabicyclo[3.1.0]hexan-3-yl)pyridin-3-yl)pyrimidin-4-yl)-2-(3-methyl-2,6-dioxo-1-(2-oxopropyl)-2,3-dihydro-1H-purin-7(6H)-yl)propanamide]",7
13,"Cc1cc(Cn2c(=O)c3c(ncn3[C@@H](C)C(=O)Nc3csc(-c4cnc(C(F)(F)F)c(C)c4)n3)n(C)c2=O)no1 [Compound 94, (S)-2-(3-methyl-1-((5-methylisoxazol-3-yl)methyl)-2,6-dioxo-2,3-dihydro-1H-purin-7(6H)-yl)-N-(2-(5-methyl-6-(trifluoromethyl)pyridin-3-yl)thiazol-4-yl)propanamide]",3
14,"COCC(=O)Cn1c(=O)c2c(ncn2[C@@H](C)C(=O)Nc2cccc(-c3ccc(N4CC5C(C4)C5(F)F)nc3)n2)n(C)c1=O (stereo partly drawn) [Compound 258, (2S)—N-(6′-(6,6-difluoro-3-azabicyclo[3.1.0]hexan-3-yl)-[2,3′-bipyridin]-6-yl)-2-(1-(3-methoxy-2-oxopropyl)-3-methyl-2,6-dioxo-2,3-dihydro-1H-purin-7(6H)-yl)propanamide]",7
15,Cc1cc(Cn2c(=O)c3c(ncn3[C@@H](C)C(=O)Nc3csc(-c4cnc(C)c(Cl)c4)n3)n(C)c2=O)no1 [Compound 91],2
16,"C[C@@H](C(=O)Nc1cccc(-c2cnc(N3CCC[C@H]3C(F)(F)F)nc2)n1)n1cnc2c1c(=O)n(CC#N)c(=O)n2C [Compound 45, (S)-2-(1-(cyanomethyl)-3-methyl-2,6-dioxo-2,3-dihydro-1H-purin-7(6H)-yl)-N-(6-(2-((S)-2-(trifluoromethyl)pyrrolidin-1-yl)pyrimidin-5-yl)pyridin-2-yl)propanamide]",4
17,"CCC(=O)Cn1c(=O)c2c(ncn2[C@@H](C)C(=O)Nc2cncc(-c3cnc(N4CC5CC5C4)nc3)n2)n(C)c1=O (stereo partly drawn) [Compound 13, (2S)—N-(6-(2-(3-azabicyclo[3.1.0]hexan-3-yl)pyrimidin-5-yl)pyrazin-2-yl)-2-(3-methyl-2,6-dioxo-1-(2-oxobutyl)-2,3-dihydro-1H-purin-7(6H)-yl)propanamide]",8
18,"Cc1nc(Cn2c(=O)c3c(ncn3[C@@H](C)C(=O)Nc3csc(-c4cnc(C)c(C(F)(F)F)c4)n3)n(C)c2=O)no1 [Compound 163, (S)-2-(3-methyl-1-((5-methyl-1,2,4-oxadiazol-3-yl)methyl)-2,6-dioxo-2,3-dihydro-1H-purin-7(6H)-yl)-N-(2-(6-methyl-5-(trifluoromethyl)pyridin-3-yl)thiazol-4-yl)propanamide]",2

# Results, then the compound that gave them:
row,IC50 [nM],Structure (SMILES)
1,1,"Cc1noc(Cn2c(=O)c3c(ncn3CC(=O)Nc3csc(-c4cnc(C)c(C(F)(F)F)c4)n3)n(C)c2=O)n1 [Compound 252, 2-(3-methyl-1-((3-methyl-1,2,4-oxadiazol-5-yl)methyl)-2,6-dioxo-2,3-dihydro-1H-purin-7(6H)-yl)-N-(2-(6-methyl-5-(trifluoromethyl)pyridin-3-yl)thiazol-4-yl)acetamide]"
2,42,"CC(=O)Cn1c(=O)c2c(ncn2CC(=O)Nc2cccc(-c3ccc(F)c(F)c3)n2)n(C)c1=O [Compound 182, N-(6-(3,4-difluorophenyl)pyridin-2-yl)-2-(3-methyl-2,6-dioxo-1-(2-oxopropyl)-1,2,3,6-tetrahydropurin-7-yl)acetamide]"
3,74,"Cn1c(=O)n(Cc2ccccn2)c(=O)c2c1ncn2CC(=O)Nc1cccc(-c2cnc(C(F)(F)F)nc2)n1 [Compound 186, 2-(3-methyl-2,6-dioxo-1-(pyridin-2-ylmethyl)-2,3-dihydro-1H-purin-7(6H)-yl)-N-(6-(2-(trifluoromethyl)pyrimidin-5-yl)pyridin-2-yl)acetamide]"
4,1,"COc1ncc(-c2cccc(NC(=O)[C@H](C)n3cnc4c3c(=O)n(Cc3cc(C)on3)c(=O)n4C)n2)cc1C(F)(F)F [Compound 121, (S)—N-(6′-methoxy-5′-(trifluoromethyl)-[2,3′-bipyridin]-6-yl)-2-(3-methyl-1-((5-methylisoxazol-3-yl)methyl)-2,6-dioxo-2,3-dihydro-1H-purin-7(6H)-yl)propanamide]"
5,25,"Cc1nc(Cn2c(=O)c3c(ncn3CC(=O)Nc3cccc(-c4cnc(C(F)(F)F)c(C)c4)n3)n(C)c2=O)no1 [Compound 223, 2-(3-methyl-1-((5-methyl-1,2,4-oxadiazol-3-yl)methyl)-2,6-dioxo-2,3-dihydro-1H-purin-7(6H)-yl)-N-(5′-methyl-6′-(trifluoromethyl)-[2,3′-bipyridin]-6-yl)acetamide]"
6,23,"Cc1nc(Cn2c(=O)c3c(ncn3[C@@H](C)C(=O)Nc3cccc(-c4cnc(C(F)(F)F)nc4)n3)n(C)c2=O)no1 [Compound 171, (S)-2-(3-methyl-1-((5-methyl-1,2,4-oxadiazol-3-yl)methyl)-2,6-dioxo-2,3-dihydro-1H-purin-7(6H)-yl)-N-(6-(2-(trifluoromethyl)pyrimidin-5-yl)pyridin-2-yl)propanamide]"
7,49,"Cc1cc(Cn2c(=O)c3c(ncn3CC(=O)Nc3cccc(-c4cnc(C(F)(F)F)c(C)c4)n3)n(C)c2=O)on1 [Compound 225, 2-(3-methyl-1-((3-methylisoxazol-5-yl)methyl)-2,6-dioxo-2,3-dihydro-1H-purin-7(6H)-yl)-N-(5′-methyl-6′-(trifluoromethyl)-[2,3′-bipyridin]-6-yl)acetamide]"
8,2,"CCC(=O)Cn1c(=O)c2c(ncn2CC(=O)Nc2cccc(-c3cnc(C)c(C(F)(F)F)c3)n2)n(C)c1=O [Compound 235, 2-(3-methyl-2,6-dioxo-1-(2-oxobutyl)-2,3-dihydro-1H-purin-7(6H)-yl)-N-(6′-methyl-5′-(trifluoromethyl)-[2,3′-bipyridin]-6-yl)acetamide]"
9,16,"Cc1noc(Cn2c(=O)c3c(ncn3CC(=O)Nc3cccc(-c4cnc(C)c(F)c4)n3)n(C)c2=O)n1 [Compound 231, N-(5′-fluoro-6′-methyl-[2,3′-bipyridin]-6-yl)-2-(3-methyl-1-((3-methyl-1,2,4-oxadiazol-5-yl)methyl)-2,6-dioxo-2,3-dihydro-1H-purin-7(6H)-yl)acetamide]"
